The values that follow come from patent US20120142550A1, “Vanin 1 as a Peripheral Blood Oxidative Stress Sensor” (priority 2010, published 2012).

For the experiment, the system named is PBMC. The experiment in a line: GSH/GSSG ratio by LC-MS/MS in treated PBMC samples. In kind it is cell-based, human. As to conditions: 4 PBMC samples, 12 hours. As for the experimental part: The levels of glutathione (GSH, reduced form) and glutathione disulfide (GSSG, oxidized form) in the whole blood of each subject were determined using a liquid chromatography-tandem mass spectrometry (LC-MS/MS)-based procedure modified from that of Norris et al. (J Chromatogr B Biomed Sci Appl. 2001; 762 (I):17-23) In brief, whole blood was mixed in a 1:4 (v:v) ratio with solution containing n-ethylmaleimide (NEM), sulfosalicylic acid, EDTA and methanol. Supernatants were diluted with stable-isotope internal standards (GSH-^13C, ^15N-NEM and GSSG-^13C, ^15N) and analyzed by LC-MS/MS, using an API 3000 Tandem Mass Spectrometer with Turbulon Ion Spray source, Shimadzu solvent delivery system and LEAP Technology autosampler. GSH (as GSH-NEM) and GSSG were monitored by transitions m/z 433→304 and m/z […] respectively, and data was acquired using Analyst 1.4.
Significance analysis of microarrays (SAM) was conducted for analysis of microarray data to identify differentially expressed genes. The Mann-Whitney test was used in the analysis of real-time PCR validation data. Unpaired t-test was conducted for the comparison of glutathione levels in ITP patients and controls. Paired t-test was carried out for the analysis of differences in GSH/GSSG ratios in cells with or without LPS or sodium arsenite treatments. […]

With Lipopolysaccharide [LPS], the “GSH/GSSG ratio compared with untreated cells” value (LPS 10 ng/ml, p=0.04) is given as “statistically significant decrease”. Consider `O=[As]O` [sodium arsenite], for which the “GSH/GSSG ratio compared with untreated cells” value (sodium arsenite 5 μM, p=0.01) is recorded as “statistically significant decrease”.
